Each molecule was assayed against Short transient receptor potential channel 6 (Mus musculus) (UniProt Q61143) (assay: mouse TRPC6 channel inhibitors, SAR follow-up, HEK293 cells, membrane potential dye, IC50 (AID 504572)). Details: acetylcholine-evoked membrane potential dye, FDSS.
Sequence of Short transient receptor potential channel 6 (Mus musculus) (Q61143 whole entry, looked up): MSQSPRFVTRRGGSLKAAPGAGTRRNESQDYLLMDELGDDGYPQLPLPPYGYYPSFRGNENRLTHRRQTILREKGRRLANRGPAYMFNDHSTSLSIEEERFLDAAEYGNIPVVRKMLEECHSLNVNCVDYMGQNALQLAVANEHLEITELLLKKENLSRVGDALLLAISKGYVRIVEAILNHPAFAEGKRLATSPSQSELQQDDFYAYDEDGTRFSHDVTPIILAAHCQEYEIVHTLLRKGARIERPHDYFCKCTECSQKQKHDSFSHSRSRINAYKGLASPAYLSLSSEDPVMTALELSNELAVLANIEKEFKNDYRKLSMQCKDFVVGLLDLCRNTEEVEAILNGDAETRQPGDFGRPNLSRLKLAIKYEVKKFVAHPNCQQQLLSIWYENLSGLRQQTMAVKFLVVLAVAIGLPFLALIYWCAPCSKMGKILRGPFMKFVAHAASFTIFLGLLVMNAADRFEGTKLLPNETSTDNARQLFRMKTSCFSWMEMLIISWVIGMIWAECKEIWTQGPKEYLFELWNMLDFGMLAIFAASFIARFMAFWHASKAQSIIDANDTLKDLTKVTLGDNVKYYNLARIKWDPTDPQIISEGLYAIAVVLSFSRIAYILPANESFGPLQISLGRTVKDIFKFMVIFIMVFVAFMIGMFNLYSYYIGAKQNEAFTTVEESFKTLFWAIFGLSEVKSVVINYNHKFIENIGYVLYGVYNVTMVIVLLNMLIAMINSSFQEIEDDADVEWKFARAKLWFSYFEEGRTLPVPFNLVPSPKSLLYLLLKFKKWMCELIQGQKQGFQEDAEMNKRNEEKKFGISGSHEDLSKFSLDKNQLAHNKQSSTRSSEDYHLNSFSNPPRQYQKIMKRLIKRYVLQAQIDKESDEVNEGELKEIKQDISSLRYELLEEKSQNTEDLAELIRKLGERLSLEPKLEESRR

Row | SMILES | IC50
1 | CCOc1ccc(CNc2ccc3c(c2)ncn3C(C)(C)C)cc1 | 2.51 µM
2 | CC(C)(C)n1cnc2cc(NCc3ccccc3Cl)ccc21 | 4.76 µM
3 | CC(C)(C)n1cnc2cc(NCc3ccc(Cl)cc3Cl)ccc21 | 6.42 µM
4 | COc1ccc(OC)c(CNc2ccc3c(c2)ncn3C(C)(C)C)c1 | 2.7 µM
5 | CCOc1ccccc1CNc1ccc2c(c1)ncn2C(C)(C)C | 2.16 µM
6 | COc1ccccc1CNc1ccc2c(c1)ncn2C(C)(C)C | 5.54 µM
